# Marks after values point to notes of the source that are not given here.
# Legend:
# [1] = Solubility in water; type: physicochemical; settings: in presence of air, 25 °C
# [2] = Stability in water in presence of air (UV-vis, 1H and 31P NMR); type: physicochemical
# Procedure: The stability of all the complexes in water was evaluated by ^31P NMR and UV–visible spectroscopies. Generally, a 5 mm NMR tube was charged in the air with the 10 mg of each complex and D2O (0.8 mL). ^1H NMR and ^31P NMR were monitored for four days to evaluate if there was any decomposition product. Decomposition/instability of the compound can be assessed by the disappearance of the NMR signals and/or by the appearance of new signals that could not be assigned to the known complex, beyond the appearance of free mTPPMS phosphine signals. Any eventual changes in the charge transfer bands between ruthenium and ligands were followed by UV–visible in the 300–900 nm range.
# [3] = target: T1, human serum albumin (HSA) (Homo sapiens, UniProt P02768); assay: Fluorescence quenching of HSA (Trp214); type: binding; settings: for KSV: pH 7.4
# T1 construct: purchased Sigma-Aldrich A1653
# Procedure: Human serum albumin (HSA) was dissolved in 10 mM HEPES buffer (pH 7.4). The HSA concentration was determined spectrophotometrically using the absorbance value at 280 nm (ε280 = 36,500 M^−1cm^−1). Complex 6 was dissolved in 10 mM HEPES buffer (pH 7.4). A series of ruthenium-protein batch solutions were prepared by adding different concentrations of ruthenium solutions to the protein solution prepared previously. For fluorescence acquisition, the final HSA concentration was 2.5 μM, and the ruthenium were 0, 0.6, 1.2, 1.8, 2.5, 5, 7.5, 10, 12.5, 15, 17.5, 20, 22.5, 25, 27.5, 30, 32.5, 35, 37.5, 40, 42.5, and 45 μM. […] The reference solutions were prepared following the procedures described above without protein.
# Steady-state fluorescence measurements were carried out with a Fluorolog Model-3.22 spectrofluorometer from Horiba Jobin Yvon at 293.15, 298.15, and 310.15 K. All measurements were performed in Hellma® semi-micro fluorescence cuvettes (Suprasil® quartz, path length 10 × 4 mm, chamber volume […]) with the 10 mm path length for the excitation of the sample. The excitation and emission slit widths were fixed at 4.0 nm, and the excitation wavelength was set at 295 nm to selectively excite the tryptophan 214 residue. The emission spectra were recorded from 305 to 550 nm. Solutions of ruthenium complex in 10 mM HEPES buffer pH 7.4 in corresponding concentrations were used as reference for the measured fluorescence spectra of protein-complex mixtures. […] The fluorescence intensities were corrected for the absorption of the exciting light and re-absorption of the emitted light to decrease the inner filter effect using UV–visible absorption data recorded for each sample on a Jasco V-660 spectrophotometer in the range of 260 to 900 nm with 1 cm path quartz cells.
# Fluorescence quenching of HSA by complex [Ru(η5-C5H5)(mTPPMS)(bopy)][CF3SO3] (6) […]
# F0 = 1 + K τ (Q) = 1 + K (Q) (S1) where F0 and F are the fluorescence intensities of HSA in the absence and presence of the quencher [Ru(η5-C5H5)(mTPPMS)(bopy)][CF3SO3]; [Q] is the quencher concentration; Kq is the bimolecular quenching constant; t0 is the average fluorescence lifetime of HSA in the absence of the quencher, and KSV is the Stern-Volmer quenching constant.
# Figure S10. Stern-Volmer plots at pH7.4 for the quenching of (A) HSA and (B) HSA faf by [Ru(η5-C5H5)(mTPPMS)(bopy)][CF3SO3] at three temperatures (◆) 293 K, (●) 298 K, (▲) 310 K.
# log(F0 − F) = log K + nlog[Q] ( S2) […]
# where Ka is the association constant for a site and n is the number of binding sites by protein.
# Figure S11. Double-log plots for the fluorescence quenching for the (A) {HSA-[Ru(η5-C5H5)(mTPPMS)(bopy)][CF3SO3]} and (B) {HSAfaf-[Ru(η5-C5H5)(mTPPMS)(bopy)][CF3SO3]} systems at three temperatures (◆) 293 K, (●) 298 K, (▲) 310 K. […]
# [4] = target: T2, {HSA-warfarin} adduct, Sudlow site I of HSA (Homo sapiens, UniProt P02768); assay: Site-marker competitive study with warfarin; type: binding; settings: HSA and warfarin equimolar 2.5 μM, Ru 0-45 μM, excitation 305 nm, emission ~380 nm
# T2 construct: purchased Sigma-Aldrich
# Procedure: Competitive binding studies were carried out by fluorescence using the classical site marker warfarin. The concentrations of HSA and warfarin were kept equimolar. The addition of complex 6 to {HSA-warfarin} solution was done according to the procedure described above for the steady-state fluorescence quenching studies.
# T1 sequence (P02768 25-609): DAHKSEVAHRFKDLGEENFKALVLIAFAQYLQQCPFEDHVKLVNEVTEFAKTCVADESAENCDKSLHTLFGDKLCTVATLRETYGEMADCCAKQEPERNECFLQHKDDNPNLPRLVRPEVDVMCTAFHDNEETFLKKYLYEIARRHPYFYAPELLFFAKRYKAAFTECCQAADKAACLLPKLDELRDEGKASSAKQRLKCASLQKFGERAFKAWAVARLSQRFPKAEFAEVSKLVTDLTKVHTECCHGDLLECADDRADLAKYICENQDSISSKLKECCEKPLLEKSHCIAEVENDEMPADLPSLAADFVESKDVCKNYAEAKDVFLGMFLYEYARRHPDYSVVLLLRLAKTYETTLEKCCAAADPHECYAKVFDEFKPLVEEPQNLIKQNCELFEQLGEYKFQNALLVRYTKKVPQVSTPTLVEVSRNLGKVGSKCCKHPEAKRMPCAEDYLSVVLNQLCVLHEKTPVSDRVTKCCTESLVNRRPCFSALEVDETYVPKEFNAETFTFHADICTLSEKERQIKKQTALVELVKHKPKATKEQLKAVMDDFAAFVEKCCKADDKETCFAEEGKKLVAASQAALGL
# T2 sequence (P02768 25-609): as above
substance,measurement,setting,value
[RuCp(mTPPMSNa)(bopy)][CF3SO3] [Compound 6],S(H2O),[1],15.3 mg/mL
same,S(H2O),[1]; value in brackets,0.015 M
same,Changes in the UV–vis spectra in aqueous solution,[2]; over 4 days at 37 °C,insignificant
same,"Stability in water, Time (Days)","[2]; water, in presence of air, 25 °C, time without hydrolysis",>4 ^[b] Days
same,Ka (association constant for a site),[3]; 293.15 K,(38.806 ± 1.26) × 10^4 L mol^−1
same,Kq,[3]; 293.15 K,(7.91 ± 0.10) × 10^12 L mol^−1 s^−1
same,n (number of binding sites),[3]; 293.15 K,1.136
same,ΔG,[3]; 293.15 K,-17.3 kcal/mol
same,KSV,[3]; 293.15 K,(7.91 ± 0.10) × 10^4 L mol^−1
same,Ka (association constant for a site),[3]; 298.15 K,(19.467 ± 1.14) × 10^4 L mol^−1
same,Kq,[3]; 298.15 K,(8.73 ± 0.12) × 10^12 L mol^−1 s^−1
same,n (number of binding sites),[3]; 298.15 K,1.053
same,ΔG,[3]; 298.15 K,-17.64 kcal/mol
same,KSV,[3]; 298.15 K,(8.73 ± 0.12) × 10^4 L mol^−1
same,Ka (association constant for a site),[3]; 310.15 K,(13.948 ± 1.15) × 10^4 L mol^−1
same,Kq,[3]; 310.15 K,(10.4 ± 0.15) × 10^12 L mol^−1 s^−1
same,n (number of binding sites),[3]; 310.15 K,0.994
same,ΔG,[3]; 310.15 K,-18.47 kcal/mol
same,KSV,[3]; 310.15 K,(10.4 ± 0.15) × 10^4 L mol^−1
same,ΔH,"[3]; Van't Hoff, 293.15-310.15 K",11.99 (R^2 = 0.9963) kJ mol^−1
same,ΔS,"[3]; Van't Hoff, 293.15-310.15 K",287.92 J mol^−1 K^−1
same,Quenching of fluorescence intensity,"[3]; highest Ru concentration (45 μM), pH 7.4, incubation at 298 K for 24 h",75%
same,Displacement of warfarin from {HSA-warfarin} adduct (in words),[4],partially replaced

# Reference: paper PMC9321894, “Design and Anticancer Properties of New Water-Soluble Ruthenium–Cyclopentadienyl Complexes” (Pharmaceuticals, 2022)
